In ChEMBL document CHEMBL1156671, “QSAR studies on benzoylaminobenzoic acid derivatives as inhibitors of beta-ketoacyl-acyl carrier protein synthase III” (Eur J Med Chem, 2008):
Values belong to the compound of their own block, whether it stands above or below them.

Key:
[1] = tested on: Neisseria meningitidis; test: Antibacterial activity against Neisseria meningitidis; assay type: functional
[2] = tested on: Escherichia coli; test: Antibacterial activity against Escherichia coli; assay type: functional
[3] = tested on: Streptococcus pneumoniae; test: Antibacterial activity against Streptococcus pneumoniae; assay type: functional
[4] = tested on: Staphylococcus aureus; test: Antibacterial activity against Staphylococcus aureus; assay type: functional
[5] = target: T1, Beta-ketoacyl-[acyl-carrier-protein] synthase III (Enterococcus faecalis (strain ATCC 700802 / V583), UniProt Q820T1); test: Inhibition of Enterococcus faecalis FabH by FabD/FabH coupled assay
T1 sequence (Q820T1 whole entry): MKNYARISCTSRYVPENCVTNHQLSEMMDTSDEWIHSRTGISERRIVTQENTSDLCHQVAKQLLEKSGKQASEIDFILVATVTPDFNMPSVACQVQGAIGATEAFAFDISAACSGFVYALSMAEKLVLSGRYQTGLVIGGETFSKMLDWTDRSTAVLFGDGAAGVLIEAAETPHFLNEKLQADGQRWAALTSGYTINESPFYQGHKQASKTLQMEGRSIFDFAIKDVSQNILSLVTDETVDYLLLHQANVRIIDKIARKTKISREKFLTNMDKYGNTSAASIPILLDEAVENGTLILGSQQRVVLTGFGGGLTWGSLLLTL

SMILES: O=C(Nc1ccccc1C(=O)O)c1ccc(-c2ccccc2)c(Oc2ccccc2)c1
-logMIC [1]: 5.854 | -logMIC [2]: 5.854 | -logMIC [3]: 5.854 | -logMIC [4]: 4.947

SMILES: O=C(Nc1ccccc1C(=O)O)c1ccc(-c2ccc(C(F)(F)F)cc2)c(Oc2ccccc2)c1
-logMIC [1]: 5.854 | -logMIC [2]: 6.155 | -logMIC [3]: 6.155 | -logMIC [4]: 5.252

SMILES: CC(C)c1cccc(-c2ccc(C(=O)Nc3ccccc3C(=O)O)cc2Oc2ccccc2)c1
-logMIC [1]: 5.854 | -logMIC [2]: 5.553 | -logMIC [3]: 5.854 | -logMIC [4]: 5.252

SMILES: O=C(Nc1ccccc1C(=O)O)c1ccc(-c2ccc(F)cc2F)c(Oc2ccccc2)c1
-logMIC [1]: 6.444 | -logMIC [2]: 6.155 | -logMIC [3]: 5.553 | -logMIC [4]: 5.252

SMILES: CS(=O)(=O)c1ccc(-c2ccc(C(=O)Nc3ccccc3C(=O)O)cc2Oc2ccccc2)cc1
-logMIC [1]: 5.252 | -logMIC [2]: 5.252 | -logMIC [3]: 4.347 | -logMIC [4]: 4.347

SMILES: Cc1cc(-c2ccc(C(=O)Nc3ccccc3C(=O)O)cc2Oc2ccccc2)ccc1Cl
-logMIC [1]: 6.155 | -logMIC [2]: 6.155 | -logMIC [3]: 5.553 | -logMIC [4]: 5.252

SMILES: CC1CC(C)CN(c2ccc(C(=O)Nc3ccccc3C(=O)O)cc2Oc2ccccc2)C1 (stereo not given)
-logMIC [1]: 5.553 | -logMIC [2]: 5.252 | -logMIC [3]: 5.553 | -logMIC [4]: 5.252

SMILES: Cc1cc(-c2ccc(C(=O)Nc3ccccc3C(=O)O)cc2Oc2ccccc2)ccc1F
-logMIC [1]: 6.155 | -logMIC [2]: 6.155 | -logMIC [3]: 6.155 | -logMIC [4]: 5.252

IC50 [5]: 0.0621 µM
SMILES: O=C(Nc1ccccc1C(=O)O)c1cc(O)c(Br)c(Oc2ccccc2)c1
-logMIC [1]: 5.553 | -logMIC [2]: 5.553 | -logMIC [3]: 4.347 | -logMIC [4]: 4.347

IC50 [5]: 0.004 µM
SMILES: O=C(Nc1ccccc1C(=O)O)c1cc(O)c(-c2ccccc2)c(Oc2ccccc2)c1
-logMIC [1]: 5.854 | -logMIC [2]: 5.854 | -logMIC [3]: 4.658 | -logMIC [4]: 4.658

IC50 [5]: 0.41 µM
SMILES: O=C(Nc1ccccc1C(=O)O)c1cc(O)cc(Oc2ccccc2)c1

IC50 [5]: 10.1 µM
SMILES: O=C(NC1=CCSC1C(=O)O)c1cccc(Oc2ccccc2)c1 (stereo not given)

IC50 [5]: 43 µM
SMILES: O=C(NC1SC=CC1C(=O)O)c1cccc(Oc2ccccc2)c1 (stereo not given)
